Test results: ChEMBL document CHEMBL1201862, “PubChem BioAssay data set” (2004)
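Values below derive from 48-hour exposures of cells grown in 96-well plates, with endpoints linearly interpolated between the two concentrations bracketing the appropriate inhibition level. At the GI50, growth is halved.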 Calls of active or inactive are those of the source. No stated cut-off is given here; in the data, active = GI50 up to about 1.1 µM and inactive = higher.

Assays:
Assay in all cases: inhibition of tumour cell growth, NCI panel, 48 h
U-251 = test system: U-251
MDA-MB-435 = test system: MDA-MB-435
NCI-H460 = test system: NCI-H460
HT-29 = test system: HT-29
DU-145 = test system: DU-145
EKVX = test system: EKVX
NCI-H23 = test system: NCI-H23
A549 = test system: A549
UO-31 = test system: UO-31
786-0 = test system: 786-0
RPMI-8226 = test system: RPMI-8226
RXF 393 = test system: RXF 393
HOP-62 = test system: HOP-62
Hs-578T = test system: Hs-578T
KM12 = test system: KM12
NCI-H522 = test system: NCI-H522
HOP-92 = test system: HOP-92
SW-620 = test system: SW-620
SF-295 = test system: SF-295
SK-MEL-2 = test system: SK-MEL-2
LOX IMVI = test system: LOX IMVI
M14 = test system: M14
A498 = test system: A498
SF-268 = test system: SF-268
TK-10 = test system: TK-10
UACC-62 = test system: UACC-62
CCRF-CEM = test system: CCRF-CEM
SK-OV-3 = test system: SK-OV-3
HCT-116 = test system: HCT-116
ACHN = test system: ACHN
SNB-19 = test system: SNB-19
NCI/ADR-RES = test system: NCI/ADR-RES
IGROV-1 = test system: IGROV-1
K562 = test system: K562
Malme-3M = test system: Malme-3M
COLO 205 = test system: COLO 205
NCI-H226 = test system: NCI-H226
BT-549 = test system: BT-549
HCT-15 = test system: HCT-15
MOLT-4 = test system: MOLT-4
SK-MEL-5 = test system: SK-MEL-5
OVCAR-3 = test system: OVCAR-3
OVCAR-8 = test system: OVCAR-8
SK-MEL-28 = test system: SK-MEL-28
PC-3 = test system: PC-3
OVCAR-5 = test system: OVCAR-5
SNB-75 = test system: SNB-75
MDA-MB-231 = test system: MDA-MB-231
T47D = test system: T47D
SR = test system: SR
CAKI-1 = test system: CAKI-1
HCC 2998 = test system: HCC 2998
OVCAR-4 = test system: OVCAR-4
HL-60 = test system: HL-60
UACC-257 = test system: UACC-257
SN12C = test system: SN12C
MCF7 = test system: MCF7
MDA-N = test system: MDA-N

## CC1(C)OC2C(O)CN3CCS[C@H]3C2O1 (stereo partly specified)
U-251
  GI50: > 100 µM (inactive)
MDA-MB-435
  GI50: > 100 µM (inactive)
NCI-H460
  GI50: > 100 µM (inactive)
HT-29
  GI50: > 100 µM (inactive)
DU-145
  GI50: > 100 µM (inactive)
EKVX
  GI50: > 100 µM (inactive)
NCI-H23
  GI50: > 100 µM (inactive)
A549
  GI50: > 100 µM (inactive)
UO-31
  GI50: > 100 µM (inactive)
786-0
  GI50: > 100 µM (inactive)
RPMI-8226
  GI50: > 100 µM (inactive)
RXF 393
  GI50: > 100 µM (inactive)
HOP-62
  GI50: > 100 µM (inactive)
Hs-578T
  GI50: > 100 µM (inactive)
KM12
  GI50: > 100 µM (inactive)
NCI-H522
  GI50: > 100 µM (inactive)
HOP-92
  GI50: > 100 µM (inactive)
SW-620
  GI50: > 100 µM (inactive)
SF-295
  GI50: > 100 µM (inactive)
SK-MEL-2
  GI50: > 100 µM (inactive)
LOX IMVI
  GI50: > 100 µM (inactive)
M14
  GI50: > 100 µM (inactive)
A498
  GI50: > 100 µM (inactive)
SF-268
  GI50: > 100 µM (inactive)
TK-10
  GI50: > 100 µM (inactive)
UACC-62
  GI50: > 100 µM (inactive)
CCRF-CEM
  GI50: > 100 µM (inactive)
SK-OV-3
  GI50: > 100 µM (inactive)
HCT-116
  GI50: > 100 µM (inactive)
ACHN
  GI50: > 100 µM (inactive)
SNB-19
  GI50: > 100 µM (inactive)
NCI/ADR-RES
  GI50: > 100 µM (inactive)
IGROV-1
  GI50: > 100 µM (inactive)
K562
  GI50: > 100 µM (inactive)
Malme-3M
  GI50: > 100 µM (inactive)
COLO 205
  GI50: > 100 µM (inactive)
NCI-H226
  GI50: > 100 µM (inactive)
BT-549
  GI50: > 100 µM (inactive)
HCT-15
  GI50: > 100 µM
MOLT-4
  GI50: > 100 µM (inactive)
SK-MEL-5
  GI50: > 100 µM (inactive)
OVCAR-3
  GI50: > 100 µM (inactive)
OVCAR-8
  GI50: > 100 µM (inactive)
SK-MEL-28
  GI50: > 100 µM (inactive)
PC-3
  GI50: > 100 µM (inactive)
OVCAR-5
  GI50: > 100 µM (inactive)
SNB-75
  GI50: > 100 µM (inactive)
MDA-MB-231
  GI50: > 100 µM (inactive)
T47D
  GI50: > 100 µM (inactive)
SR
  GI50: > 100 µM (inactive)
CAKI-1
  GI50: > 100 µM (inactive)
HCC 2998
  GI50: > 100 µM (inactive)
OVCAR-4
  GI50: > 100 µM (inactive)
HL-60
  GI50: > 100 µM (inactive)
UACC-257
  GI50: > 100 µM (inactive)

## COc1cc(/C=C2\C(=O)N(c3cccc([N+](=O)[O-])c3)C(c3ccccc3)S2(=O)=O)cc(OC)c1OC (stereo unspecified)
U-251
  GI50: > 100 µM (inactive)
MDA-MB-435
  GI50: 32.3 µM (inactive)
NCI-H460
  GI50: > 100 µM (inactive)
HT-29
  GI50: > 100 µM (inactive)
DU-145
  GI50: > 100 µM (inactive)
EKVX
  GI50: > 100 µM (inactive)
NCI-H23
  GI50: > 100 µM (inactive)
A549
  GI50: > 100 µM (inactive)
UO-31
  GI50: > 100 µM (inactive)
786-0
  GI50: > 100 µM (inactive)
RPMI-8226
  GI50: 64.9 µM (inactive)
RXF 393
  GI50: > 100 µM (inactive)
HOP-62
  GI50: > 100 µM (inactive)
SN12C
  GI50: > 100 µM (inactive)
KM12
  GI50: 92.7 µM (inactive)
NCI-H522
  GI50: > 100 µM (inactive)
HOP-92
  GI50: > 100 µM (inactive)
SW-620
  GI50: 94.4 µM (inactive)
SF-295
  GI50: 97.5 µM (inactive)
SK-MEL-2
  GI50: > 100 µM (inactive)
LOX IMVI
  GI50: > 100 µM (inactive)
M14
  GI50: > 100 µM (inactive)
A498
  GI50: > 100 µM (inactive)
TK-10
  GI50: > 100 µM (inactive)
UACC-62
  GI50: 80.7 µM (inactive)
CCRF-CEM
  GI50: 62.2 µM (inactive)
SK-OV-3
  GI50: > 100 µM (inactive)
HCT-116
  GI50: > 100 µM (inactive)
ACHN
  GI50: > 100 µM (inactive)
SNB-19
  GI50: > 100 µM (inactive)
NCI/ADR-RES
  GI50: > 100 µM (inactive)
IGROV-1
  GI50: > 100 µM (inactive)
K562
  GI50: 49.4 µM (inactive)
Malme-3M
  GI50: > 100 µM (inactive)
COLO 205
  GI50: > 100 µM (inactive)
NCI-H226
  GI50: > 100 µM (inactive)
MCF7
  GI50: 39.7 µM (inactive)
BT-549
  GI50: > 100 µM (inactive)
HCT-15
  GI50: > 100 µM
MOLT-4
  GI50: 74 µM (inactive)
MDA-N
  GI50: 31.1 µM (inactive)
SK-MEL-5
  GI50: > 100 µM (inactive)
OVCAR-3
  GI50: > 100 µM (inactive)
OVCAR-8
  GI50: > 100 µM (inactive)
SK-MEL-28
  GI50: > 100 µM (inactive)
PC-3
  GI50: > 100 µM (inactive)
OVCAR-5
  GI50: > 100 µM (inactive)
SNB-75
  GI50: > 100 µM (inactive)
MDA-MB-231
  GI50: > 100 µM (inactive)
T47D
  GI50: 63.7 µM (inactive)
SR
  GI50: 37.2 µM (inactive)
CAKI-1
  GI50: > 100 µM (inactive)
HCC 2998
  GI50: > 100 µM (inactive)
OVCAR-4
  GI50: 80 µM (inactive)
HL-60
  GI50: 84.7 µM (inactive)
UACC-257
  GI50: > 100 µM (inactive)
